The text below walks through data of ChEMBL document CHEMBL3044988, “QSAR analysis of B-ring-modified diaryl ether derivatives as a InhA inhibitors” (Med Chem Res, 2012).

The first data set concerns the target T1, Enoyl-[acyl-carrier-protein] reductase [NADH] (Mycobacterium tuberculosis, UniProt P9WGR1).
T1 sequence (P9WGR1 whole entry): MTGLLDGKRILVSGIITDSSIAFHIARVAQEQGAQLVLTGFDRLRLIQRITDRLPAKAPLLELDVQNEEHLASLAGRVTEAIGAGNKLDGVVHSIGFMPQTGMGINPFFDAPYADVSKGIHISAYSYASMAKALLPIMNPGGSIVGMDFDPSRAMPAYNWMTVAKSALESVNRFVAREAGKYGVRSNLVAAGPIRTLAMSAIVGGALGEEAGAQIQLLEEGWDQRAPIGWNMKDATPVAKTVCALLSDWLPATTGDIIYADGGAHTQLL
Conditions: not given
Compound `CCCCCCc1ccc(Oc2cccc(NC(C)=O)c2)c(O)c1` had a half-inhibitory concentration (IC50) of 579 nM.

System in a further data set: not listed separately
In words: Partition coefficient, log P of the compound. In kind it is physicochemical. The following applies: octanol/water.
`CCCCCCc1ccc(Oc2ccccc2[N+](=O)[O-])c(O)c1` yielded a logP of 4.489.

In turn, `CCCCCCc1ccc(Oc2ccc([N+](=O)[O-])cc2)c(O)c1` gave a logP of 4.489.

The data set is the same for the next values; noted with them: octanol/water; read-out: logP.
For `CCCCCCc1ccc(Oc2ncccn2)c(O)c1`, the logP worked out at 4.13.

Regarding `CCCCCCc1ccc(Oc2cnccn2)c(O)c1`, the logP was 4.12.

Regarding `CCCCCCc1ccc(Oc2ccncc2)c(O)c1`, the logP was 4.33. In the case of `CCCCCCc1ccc(Oc2ccc(NC(=O)c3ccno3)cc2)c(O)c1`, the log partition coefficient (logP) was determined as 4.86. As for `CCCCCCc1ccc(Oc2ccc(CN3CCN(C)CC3)cc2)c(O)c1`, the logP was 5.33. For `CCCCCCc1ccc(Oc2ccc(NC(=O)C(=O)O)cc2)c(O)c1`, the logP stood at 5.59. In the case of `CCCCCCc1ccc(Oc2ccc(NC(C)=O)cc2)c(O)c1`, the log partition coefficient (logP) worked out at 5.

For the compound `CCCCCCc1ccc(Oc2ccc(N)cc2)c(O)c1`, the logP was found to be 4.42. With `CCCCCCc1ccc(Oc2ccccc2NC(C)=O)c(O)c1`, the logP amounted to 5.

`CCCCCCc1ccc(Oc2cccc([N+](=O)[O-])c2)c(O)c1`: the logP was found to be 4.49. Take `CCCCCCc1ccc(Oc2ccccc2N)c(O)c1`: the logP was found to be 4.42. In the case of `CCCCCCc1ccc(Oc2ccccn2)c(O)c1`, the logP turned out to be 5.03. `CCCCCCc1ccc(Oc2ccccc2)c(O)c1`: the logP amounted to 5.64. Take `CCCCCCc1ccc(Oc2cccc(NC(C)=O)c2)c(O)c1`: the lipophilicity (logP) is 5. Consider `CCCCCCc1ccc(Oc2cccc(N)c2)c(O)c1`, for which the logP worked out at 4.42. `CCCCCCc1ccc(Oc2cccc(NC(=O)c3ccno3)c2)c(O)c1`: the logP turned out to be 4.86.

As for `CCCCCCc1ccc(Oc2cccnc2)c(O)c1`, the logP turned out to be 4.33. On to `CCCCCCc1ccc(Oc2ccccc2CN2CCN(C)CC2)c(O)c1`, for which the logP is 5.33. With `CCCCCCc1ccc(Oc2ccccc2NC(=O)c2ccno2)c(O)c1`, the logP worked out at 4.86.

Usually IC50 stands for the point on the concentration scale where inhibition reaches its midpoint. What is called logP is a log measure of how a compound divides between an organic and an aqueous phase.
